Entries after “also recorded” stand apart in the source; their conditions may differ. Read-outs that look alike come from different tables or passages of the source.
What was measured:
[1] = rat, in vivo
Protocol: (§2) Plasma concentrations of total radioactivity and of the metabolites were determined at different timepoints. Tissue concentrations of total radioactivity were determined from a range of tissues at different timepoints up to 120 hours following injection. Liver tissues were extracted and metabolite concentrations were determined up to 72 hours post injection.

[2] = tested on: Raji human B-lymphoma cells; test: Raji leptomeningal carcinomatosis model in nude rats; assay type: in vivo; conditions: for mean day of death: 3 bolus injections on day 1, 2 and 4
Protocol: The model used is a tumour model in nude rats for leptomeningal growth of tumours. 1×10^6 cells of the Bcell tumour line Raji were injected into the spinal fluid through cistema magna (c.m.). of 4-5 weeks old nude rats. […] Anaesthetised animals were treated intracerebrally with a 40 μl injection into cistema magna with 3 or 4 bolus injections. Treatment was started 1 day after cell inoculation.

[3] = tested on: TLX/5 lymphoma; test: Anti-tumour activity against murine TLX/5 lymphoma; assay type: in vivo, CBA mice; conditions: FIG. 16; for Maximum increase in lifespan: i.p. days 3-7, 6.25-50 mg/kg/day, median of 5; for doses at which active (increase in life span): i.p. treatment for 5 days
Protocol: CBA mice weighing 20-25 g were inoculated subcutaneously inguinally with 1×10^5, TLX/5 tumour cells day 0. […] Doses were in the range 6.25-50 mg/kg/day. There were 5 mice per treatment per group and 10 tumour-bearing controls. Activity was assessed in terms of increase in life span (ILS) versus controls.

[4] = tested on: brain metastasis of a melanoma; test: Clonogenic agarose assay, melanoma brain metastasis biopsy; assay type: cell-based, human
Protocol: A biopsy was taken from the patient and placed immediately in a growth medium. […] Twenty-four hours before termination of the cultures (7 days) ^3H Thymidin was added. The activity of the test substance is thus quantified as cpm in a scintillation counter.

[5] = tested on: A549 cells (human lung carcinoma); test: Cell inactivation, colony forming ability, A549; assay type: cell-based; conditions: FIG. 9; exposed for 24 hours
Protocol: (§1) Cell inactivation measured by means of loss of ability to form colonies was determined for several compounds. Cells used were of the established human cell lines of cancer cervix in situ origin, NHIK 3025, NHIK 3025/DDP, a cis-DDP-resistant variant of the same or A549 cells (human lung carcinoma). The cells were exposed to the test compound for 4 up till 24 hours. Test compounds were administered as micellar solution. Number of colonies were counted after about 12 days of incubation.
The cells were exposed for 24 hours.

[6] = tested on: NFkappaB; test: Activation of the cellular transcription factor NFkappaB (β-galactosidase reporter, SW480 cells); assay type: cell-based, human; conditions: FIG. 15; exposure 4 h
Protocol: Human SW480 colon adenocarcinoma cells stably transfected with a CMV promotor/enhancer containing the gene for β-galactosidase were used. Activation of the transcription factor NFkappaB results in enhanced amount of the enzyme β-galactosidase in cytoplasma. The amount of β-galactosidase is quantified using optical density at 570 nm as parameter. The […] cells were incubated 2-3 days before exposure to the test compound for 4 h. The cells were washed and prepared, and optical density recorded for the different compounds.

[7] = tested on: NHIK 3025/DDP cells; test: Cell inactivation, colony forming ability, NHIK 3025/DDP; assay type: cell-based, human; conditions: FIG. 8; 4 h treatment
Protocol: as §1
The results here are obtained with 4 h treatment of NHIK 3025/DDP cells.

[8] = tested on: Raji human B-lymphoma cells; test: Leukaemia model using Raji cells in SCID mice; assay type: in vivo
Protocol: SCID mice were injected intravenously with 1×10^6 Raji human B-lymphoma cells. […] Animals develop paralysis of the hind legs as a result of the tumour growth.

[9] = tested on: glioblastoma cell line U-118; test: Glioblastoma U-118 subcutaneous tumour in nude mice, intratumoural injection
Protocol: A glioblastoma cell line U-118 (Uppsala) tissue culture was injected subcutaneously in nude mice. A small part (2×2 mm) of growing tumour was transferred to new mice. […] Depending on the actual tumour size, the animals received the same relative amount of test substance. The control was given saline water. The growth rate was recorded as relative tumour volume (RTV).

[10] = Comparative pharmacokinetic, distribution, metabolism and excretion, i.v. to male rats; conditions: for Excretion of radioactivity: 14C-Ara-C-elaidate 5 mg/kg or 14C-Ara-C 2.4 mg/kg
Protocol: as §2

[11] = tested on: Molt 4 human lymphoma cells; test: Molt 4 leptomeningal carcinomatosis model in nude rats; assay type: in vivo; conditions: FIG. 12; treated 4x in cisterna magna
Protocol: The model used is a tumour model in nude rats for leptomeningal growth of tumours. 10^6 cells of the T-cell tumour line Molt 4 were injected into the spinal fluid through cistema magna (c.m.) of 4-5 weeks old nude rats. The animals develop neurological symptoms after 20-22 days if untreated. Anaesthetised animals were treated intracerebrally with a 40 μl injection into cistema magna with 4 bolus injections. Treatment was started 1 day after cell inoculation. Test compounds were Ara-C-5′-elaidyl ester (in micelles) and Ara-C. Ara-C was administered both at maximal tolerable dose (MTD) and at an equimotar dose to Ara-C-5′-elaidyl ester. Control animals (treated with NaCl) developed symptoms from the central nervous system after approximately 20 days.

[12] = tested on: PV/2b/35 hemangiosarcoma cells; test: Anti-tumour activity in SCID mice with hemangiosarcoma cells; assay type: in vivo; conditions: FIG. 17, 25 mg/kg/day
From the text: SCID mice were inoculated intraperitoneally with PV/2b/35 hemangiosarcoma cells. […] Controls were empty micelles, DMSO or PBS respectively. The animals were not treated during weekends. Survival was the endpoint of the study.

[13] = tested on: glioblastoma taken from a patient; test: Clonogenic agarose assay, glioblastoma biopsy; assay type: cell-based, human; conditions: FIGS. 1 and 2
Protocol: A biopsy was taken from the patient and placed immediately in a growth medium. Tumour tissue was desegregated mechanically, and living cells were selected the chemotherapeutic test substance was added, BCNU (in water) and Ara-C and Ara-C esters (in micelles), and the cells were cultivated in a soft agarose medium. Twenty-four hours before termination of the cultures (7 days) ^3H Thymidin was added. The activity of the test substance is thus quantified as cpm in a scintillation counter.
The results here are obtained with a glioblastoma taken from a patient. The same response pattern is found in 8 other glioblastoma biopsies. […] The results are given as % of the untreated control. A count of 50% (CD50) is taken as promising regarding use in therapy of this actual cancer line. What is worth nothing here is the 10^1.5 higher concentration of Ara-C needed to obtain CD50 as compared with elaidyl esters.

With `Nc1ccn([C@@H]2O[C@H](CO)[C@@H](O)[C@@H]2O)c(=O)n1` [Ara-C, 1-β-D-arabinofuranosylcytosine, reference compound] the “time up to which Ara-C is detectable in plasma” value ([1]; male) was 24 h, the “liver concentration of Ara-C” value ([1]; male, 4 h) was “non-detectable levels after 4 hours” and the “plasma levels of both Ara-C and Ara-U” value ([1]; male, 48 h) was “below the assay limit of detection at 48 h”. The “proportion of the dose in whole-blood” value ([1]; male, iv, 0.08 h) was 7.76%, the “mean day of death” value ([2]; FIG. 10) was 13 days and the effect on survival ([2]; FIG. 11, 4 bolus doses day 1-4, Ara-C at MTD and at dose equimolar to Ara-C-elaidate) was “void of activity; also recorded: no effects”. The “Maximum increase in lifespan” value [3] was 32.7%, the “doses at which active (increase in life span)” value [3] was “only active at the dose 25 mg/kg” and the “difference (CD50 concentration) between Ara-C and the 3′- and 5′-elaidyl esters” value ([4]; FIG. 3) was ~10 times.
In the case of `CCCCCCCCCCCC=CCCCCC(=O)OCC1OC(n2ccc(N)nc2=O)C(O)C1O` (stereo not drawn) [Ara-C-5′-petroseline ester], the “inactivation (colony forming ability) compared to Ara-C” value (“inactivation … compared to Ara-C” for short) [5] is reported as “enhanced effect”.
With `CCCCCCCCCCCCCCCCCC(=O)OCC1OC(n2ccc(N)nc2=O)C(O)C1O` (stereo not drawn) [Ara-C-5′-stearyl ester] the “inactivation … compared to Ara-C” value [5] was “highest inactivation”.
For `CCCCCCCC/C=C/CCCCCCCC(=O)OC[C@H]1O[C@@H](n2ccc(N)nc2=O)[C@@H](O)[C@@H]1O` [Ara-C-elaidate, 5′-O-(Elaidoyl) 1-β-D-arabinofuranosylcytosine], the “β-galactosidase activity (optical density at 570 nm), NFkappaB activation” value [6] was “substantial increase in β-galactosidase activity”, the “initial whole blood and plasma concentration compared to Ara-C” value [1] was “higher” and the “maximal concentrations compared to Ara-C” value [1] was “lower”. The “maximal concentrations in most tissues compared to Ara-C” value [1] was “notably higher and occurred at later timepoints”, the “plasma levels of both Ara-C and Ara-U” value [1] was “can still be quantified at 72 h” and the “tissue concentration of total radioactivity compared to 14C-Ara-C” value [1] was “higher at all timepoints up to 120 hours”. The “concentration of active drug in RES tissues compared to Ara-C” value ([1]; iv) was “significantly higher”, the “elimination from tissues compared to 14C-Ara-C” value ([1]; iv) was “much slower” and the “tissue distribution compared to Ara-C” value ([1]; iv) was “significantly altered”. The “effect on colony forming ability compared to Ara-C” value [7] was “Enhanced effect”, the “inactivation … compared to Ara-C” value [5] was “enhanced effect” and the “increase of symptom free latency period as compared to Ara-C” value ([2]; FIG. 10, 3 bolus injections into cisterna magna on day 1, 2 and 4) was 135%. For the same compound, the “mean day of death” value ([2]; FIG. 10) was 30.5 days, the “survival of one rat (considered cured)” value ([2]; FIG. 10, 3 bolus injections, no tumours at necropsy day 76) was “more than 70 days” and the “rats still alive and symptom-free at day 70” value ([2]; FIG. 11, 4 daily bolus doses day 1-4 into cisterna magna) was 3 out of 5. For the same compound, the “fraction of the molar dose of Ara-C giving similar anti-cancer effects” value ([8]; FIG. 13) was 1/20, the mean survival ([8]; FIG. 13, i.v. days 7, 9, 11, 13, 15, 20 mg/kg Ara-C-elaidate vs 200 mg/kg Ara-C) was “increased mean survival compared to control and Ara-C treated animals” and the mean survival time ([8]; FIG. 14, i.p. once daily days 7-11, versus every other day) was “greatly prolonged”. The CNS disturbance ([9]; FIG. 18, intratumoural injection) was “nor was there noted any sign of CNS disturbance”, the “tumour growth (relative tumour volume)” value ([9]; FIG. 18, intratumoural injection of 10 mg/ml micellar solution) was “complete stop in tumour growth” and the toxic side effects ([9]; mouse, in vivo) was “no signs of toxic side effects”. For the same compound, the Excretion of radioactivity ([10]; 0-6 hours, i.v. male rats) was 59.1 ± 3.7 % of dose, the Excretion of radioactivity ([10]; 6-24 hours, i.v. male rats) was 34.1 ± 2.5 % of dose and the Excretion of radioactivity ([10]; 24-48 hours, i.v. male rats) was 2.7 ± 0.8 % of dose. For the same compound, the Excretion of radioactivity ([10]; 48-72 hours, i.v. male rats) was 0.5 ± 0.1 % of dose, the Excretion of radioactivity ([10]; 72-96 hours, i.v. male rats) was 0.2 ± 0.1 % of dose and the “detection of metabolite Ara-U in liver” value ([10]; FIG. 19) was “no detection of Ara-U up to 24 hours”. The “time a therapeutic significant Ara-C level is sustained in liver” value ([10]; FIG. 19, after dosing the ester) was “at least 72 h”, the “time up to which Ara-C is detectable in plasma” value ([10]; FIG. 20) was 72 h and the “metabolism of Ara-C to Ara-U” value ([10]; FIG. 20, plasma) was “less extensive, and starts later”. The “rate of excretion of radioactivity in urine compared to 14C-Ara-C” value ([10]; Table 2) was “slower”, the “proportion of the dose in whole-blood” value ([10]; at 0.08 hours after i.v. administration) was 64.7% and the “excretion via the renal system compared to Ara-C” value ([10]; i.v. male rats) was “much slower”. For the same compound, the “conversion to Ara-U compared to Ara-C” value ([10]; table 1 and FIG. 20) was “slower”, the “Maximum increase in lifespan” value [3] was 47.2% and the “doses at which active (increase in life span)” value [3] was “active at the doses 12.5 mg/kg and 25 mg/kg”. The “onset of death compared to Ara-C or control” value [11] was “delayed”, the survival ([12]; 5 days per week) was “greatly enhanced” and the “survival compared to control” value ([12]; dissolved in DMSO) was “enhanced survival compared to control”. For the same compound, the “survival compared to control” value ([12]; prepared in micelles) was “enhanced survival compared to control”.
For `O=NN(CCCl)C(=O)NCCCl` [BCNU, N,N-cis(2-chloroethyl)N-nitroso-urea], the “concentration needed to obtain CD50, times higher than with the Ara-C esters” value [13] was “about 10 times”, the “concentration needed to obtain CD50 compared to Ara-C alone” value [13] was “reasonably comparable” and the “higher concentration to give CD50 compared to the Ara-C esters” value ([4]; FIG. 4) was “more than 1×10^2”.
